Measured values as given in patent US12655142B2 (Merck Patent GmbH, priority 2019, dated 2026).
Counter-ions that a name gives are not always drawn. Like-named read-outs stand apart in the source and are kept apart here.

Experiments:
[1] = target: T1, GIST430 cell line expressing constitutive active cKIT receptor tyrosine kinase (Δ560-576 deletion) (Homo sapiens, UniProt P10721, DEL560-576); test: Cellular cKIT autophosphorylation (phospho-Y307-cKIT, Luminex bead assay) in GIST430 cells; type: cell-based
T1 construct: endogenous in cells; host or cells: GIST430 cells
T1 sequence (P10721 with tags, fused parts or gaps DEL560-576): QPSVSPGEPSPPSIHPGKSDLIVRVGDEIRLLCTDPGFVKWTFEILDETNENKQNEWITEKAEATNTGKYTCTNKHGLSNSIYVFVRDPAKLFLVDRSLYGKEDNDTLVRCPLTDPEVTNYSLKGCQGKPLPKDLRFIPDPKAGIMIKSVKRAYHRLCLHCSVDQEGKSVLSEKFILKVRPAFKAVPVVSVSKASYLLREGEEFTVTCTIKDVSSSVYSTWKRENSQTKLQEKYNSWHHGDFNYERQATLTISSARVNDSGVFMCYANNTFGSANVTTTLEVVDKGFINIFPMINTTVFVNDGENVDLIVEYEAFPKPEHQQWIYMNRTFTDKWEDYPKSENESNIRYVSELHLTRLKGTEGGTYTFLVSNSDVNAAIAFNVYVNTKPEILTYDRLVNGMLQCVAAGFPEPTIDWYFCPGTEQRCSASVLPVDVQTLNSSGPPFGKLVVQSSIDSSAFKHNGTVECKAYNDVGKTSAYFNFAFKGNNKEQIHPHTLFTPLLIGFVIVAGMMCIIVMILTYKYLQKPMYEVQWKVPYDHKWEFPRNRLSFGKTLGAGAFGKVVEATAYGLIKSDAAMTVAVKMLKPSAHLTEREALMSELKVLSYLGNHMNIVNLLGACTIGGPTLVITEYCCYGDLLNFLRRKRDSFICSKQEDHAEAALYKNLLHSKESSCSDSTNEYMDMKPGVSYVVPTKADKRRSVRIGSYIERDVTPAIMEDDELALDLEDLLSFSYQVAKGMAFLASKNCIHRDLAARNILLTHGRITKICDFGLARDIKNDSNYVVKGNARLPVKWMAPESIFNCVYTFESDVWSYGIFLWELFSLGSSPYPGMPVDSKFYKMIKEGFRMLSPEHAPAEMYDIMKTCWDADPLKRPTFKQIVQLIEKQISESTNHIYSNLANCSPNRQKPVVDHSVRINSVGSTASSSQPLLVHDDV
Method: Assay Principle for Cellular Testing of cKIT Mutant Inhibitors
The GIST430 cell line expressing constitutive active cKIT receptor tyrosine kinase (Δ560-576 deletion) and the Imatinib resistant GIST430/654 cell line expressing mutated constitutively active cKIT receptor tyrosine kinase (Δ560-576 deletion and V654A point mutation) were employed for assessing cellular potency of compounds. Cellular activity of mutant cKIT was determined by the degree of cKIT autophosphorylation at tyrosine 307 using a Luminex-based bead assay. GIST430 cells were plated with 22,000 cells per well of a 96-well plate in 100 μl medium (85% IMDM/15% FCS) and GIST430/654 cells were plated with 25,000 cells per well of a 96-well plate in 100 μl medium (85% IMDM/15% FCS supplemented with 100 nM Imatinib). At the following day compounds were added in a serial dilution for 45 min. Then, cells were lysed with 90 μl lysis buffer (20 mM Hepes pH 7.5, 200 mM NaCl, 1.5 mM MgCl2×6H2O, 0.4 mM EDTA, 1% Triton-X-100, 1% Phosphatase-Inhibitor II, 20 mM β-Glycerolphosphat, 0.1% Protease-Inhibitor Cocktail III, 0.01% Benzonase) and lysates were cleared by centrifugation through a 96-well filter plate (0.65 μm). Samples were incubated with Luminex-beads which were coupled with an anti-total cKIT antibody overnight at 4° C. under gentle agitation. For detection of phospho-Y307-cKIT a phosphospecific antibody and a species-specific PE-labeled secondary antibody were added. The amount of phospho-Y307-cKIT was determined in a Luminex 200 instrument measuring 100 events per well within 60 seconds.
Counts from samples treated with compounds were calculated as percent of control from solvent treated (0.3% DMSO) samples. Dose-response curves were fitted and IC50 values were determined using Genedata Screener software.

[2] = target: T2, GIST430/654 cell line expressing mutated constitutively active cKIT receptor tyrosine kinase (Δ560-576 deletion and V654A point mutation) (Homo sapiens, UniProt P10721, DEL560-576/V654A); test: Cellular cKIT autophosphorylation (phospho-Y307-cKIT, Luminex bead assay) in GIST430/654 cells; type: cell-based; details: compounds 45 min, read-out: GIST 430/654 IC50
T2 construct: endogenous in cells; host or cells: GIST430/654 cells
T2 sequence (P10721 with tags, fused parts or gaps DEL560-576/V654A): as the sequence (P10721 with tags, fused parts or gaps DEL560-576) above, with V612A counted along it
Procedure, shortened: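 Phospho-Y307 cKIT in lysates was measured on a Luminex bead assay, with total-cKIT capture overnight at 4 °C and phosphospecific plus PE secondary detection. Cells had 45 min exposure to a compound dilution series the day after plating: GIST430 (Δ560-576) or GIST430/654 (Δ560-576/V654A, grown with 100 nM imatinib). IC50 values are relative to 0.3% DMSO-treated cells.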

c-Kit(V654A) = target: T3, c-Kit(V654A) (Homo sapiens, UniProt P10721, V654A); test: c-Kit(V654A) assay (33P-ATP filter binding kinase assay); type: biochemical; details: recombinant human c-Kit aa 544-end V654A, ATP 200 μM
T3 construct: recombinant human c-Kit, amino acids 544-end containing the V654A mutation; GST (N)
T3 sequence (P10721 544-976 V654A): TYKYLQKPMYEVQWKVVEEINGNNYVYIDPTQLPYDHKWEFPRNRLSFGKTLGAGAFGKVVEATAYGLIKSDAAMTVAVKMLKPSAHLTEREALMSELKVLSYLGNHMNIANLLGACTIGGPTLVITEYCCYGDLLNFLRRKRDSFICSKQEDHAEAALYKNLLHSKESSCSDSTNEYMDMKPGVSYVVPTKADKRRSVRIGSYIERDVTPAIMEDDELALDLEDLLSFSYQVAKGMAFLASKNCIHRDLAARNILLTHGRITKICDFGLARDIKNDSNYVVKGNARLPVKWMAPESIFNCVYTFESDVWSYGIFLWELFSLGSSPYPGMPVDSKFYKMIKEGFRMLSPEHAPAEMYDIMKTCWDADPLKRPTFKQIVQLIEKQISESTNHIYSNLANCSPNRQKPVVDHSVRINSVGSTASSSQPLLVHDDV
Procedure, shortened: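 Radiometric filter-binding read-out: substrate 33P incorporation counted by scintillation after P30 filtermat washes in 75 mM phosphoric acid and methanol. Enzyme: N-GST recombinant human c-Kit aa 544-end carrying V654A.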

[3] = Determination of Efflux-Ratio (ER) in Caco-2 cells; details: human, Caco-2, pH 7.4

SMILES	IC50 ([1]; cKIT autophosphorylation, GIST430 cells, compounds 45 min, read-out: GIST 430 IC50) [M]	IC50 [2] [nM]	IC50 (c-Kit(V654A)) [nM]	efflux ratio at 2 h, 1 μM [3]	IC50 ([1]; cell line not specified (GIST), read-out: IC50 [M] GIST) [M]
COCCOc1ccn2c(-c3cc(NCc4ccc(-c5cccnc5)cc4)ncn3)cnc2c1 [A5, 6-[7-(2-methoxyethoxy)imidazo[1,2-a]23yridine-3-yl]-N-{[4-(23yridine-3-yl)phenyl]methyl}pyrimidin-4-amine]	5.3e-09	170	8.2	–	–
Cn1ncc(-c2ccc(CNc3cc(-c4cnc5cc(OCCC6CCNC6)ccn45)ncn3)cc2)n1 (centres unmarked) [A176, [4-(2-methyl-2H-[1,2,3]triazol-4-yl)-benzyl]-{6-[7-(2-pyrrolidin-3-yl-ethoxy)-imidazo[1,2-a]pyridin-3-yl]-pyrimidin-4-yl}-amine]	–	84	3.2	> 50	–
COCCOc1ccn2c(-c3cc(NCc4ccc(-c5cnn6c5CCC6)cc4)ncn3)cnc2c1 [A17, 6-[7-(2-methoxyethoxy)imidazo[1,2-a]pyridin-3-yl]-N-[(4-{4H,5H,6H-pyrrolo[1,2-b]pyrazol-3-yl}phenyl)methyl]pyrimidin-4-amine]	–	110	9.7	< 15	–
COc1ccn2c(-c3cc(OCc4ccc(-c5cnn(C)c5)cc4)ncn3)cnc2c1 [A158, 7-methoxy-3-{6-[4-(1-methyl-1H-pyrazol-4-yl)-benzyloxy]-pyrimidin-4-yl}-imidazo[1,2-a]pyridine]	–	140	13	< 15	–
Cc1noc(C2CN(CCOc3ccn4c(-c5cc(NCc6ccc(-c7cnn(C)c7)cc6)ncn5)cnc4c3)C2)n1 [A213, [6-(7-{2-[3-(3-methyl-[1,2,4]oxadiazol-5-yl)-azetidin-1-yl]-ethoxy}-imidazo[1,2-a]pyridin-3-yl)-pyrimidin-4-yl]-[4-(1-methyl-1H-pyrazol-4-yl)-benzyl]-amine]	–	180	16	< 15	–
Cn1cc(-c2ccc(CNc3cc(-c4cnc5cc(OCCN6CCC(C)(F)CC6)ccn45)ncn3)cc2)cn1 [A196, (6-{7-[2-(4-fluoro-4-methyl-piperidin-1-yl)-ethoxy]-imidazo[1,2-a]pyridin-3-yl}-pyrimidin-4-yl)-[4-(1-methyl-1H-pyrazol-4-yl)-benzyl]-amine]	–	140	14	< 15	–
Cn1cc(-c2ccc(CNc3cc(-c4cnc5cc(OCCN6CCn7cccc7C6)ccn45)ncn3)cc2)cn1 [A218, (6-{7-[2-(3,4-dihydro-1H-pyrrolo[1,2-a]pyrazin-2-yl)-ethoxy]-imidazo[1,2-a]pyridin-3-yl}-pyrimidin-4-yl)-[4-(1-methyl-1H-pyrazol-4-yl)-benzyl]-amine]	–	200	11	< 15	–
Cn1cc(-c2ccc(CNc3cc(-c4cnc5cc(OCCN6CC7CC6C[S+]7[O-])ccn45)ncn3)cc2)cn1 (centres unmarked) [A199, [4-(1-methyl-1H-pyrazol-4-yl)-benzyl]-(6-{7-[2-(2-oxo-2|4-thia-5-aza-bicyclo[2.2.1]hept-5-yl)-ethoxy]-imidazo[1,2-a]pyridin-3-yl}-pyrimidin-4-yl)-amine]	–	100	9.7	> 50	–
Cn1cc(-c2ccc(CNc3cc(-c4cnc5cc(OCCN6CCC(C)(C#N)CC6)ccn45)ncn3)cc2)cn1 [A222, 4-methyl-1-[2-(3-{6-[4-(1-methyl-1H-pyrazol-4-yl)-benzylamino]-pyrimidin-4-yl}-imidazo[1,2-a]pyridin-7-yloxy)-ethyl]-piperidine-4-carbonitrile]	–	93	17	< 15	–
Cn1cc(-c2ccc(CNc3cc(-c4cnc5cc(OCCN6Cc7ccncc7C6)ccn45)ncn3)cc2)cn1 [A195, (6-{7-[2-(1,3-dihydro-pyrrolo[3,4-c]pyridin-2-yl)-ethoxy]-imidazo[1,2-a]pyridin-3-yl}-pyrimidin-4-yl)-[4-(1-methyl-1H-pyrazol-4-yl)-benzyl]-amine]	–	72	9.7	< 15	–

More lines, in order of falling IC50 (c-Kit(V654A)), values ahead:

IC50 ([1]; cKIT autophosphorylation, GIST430 cells, compounds 45 min, read-out: GIST 430 IC50) [M]	IC50 [2] [nM]	IC50 (c-Kit(V654A)) [nM]	efflux ratio at 2 h, 1 μM [3]	IC50 ([1]; cell line not specified (GIST), read-out: IC50 [M] GIST) [M]	SMILES
–	130	16	< 15	–	Cn1cc(-c2ccc(CNc3cc(-c4cnc5cc(OCCCn6cccn6)ccn45)ncn3)cc2)cn1 [A257, N-{[4-(1-methyl-1H-pyrazol-4-yl)phenyl]methyl}-6-{7-[3-(1H-pyrazol-1-yl)propoxy]imidazo[1,2-a]pyridin-3-yl}pyrimidin-4-amine]
–	400	14	> 50	–	Cc1nnc2n1CCN(CCOc1ccn3c(-c4cc(NCc5ccc(-c6cnn(C)c6)cc5)ncn4)cnc3c1)C2 [A221, (6-{7-[2-(3-methyl-5,6-dihydro-8H-[1,2,4]triazolo[4,3-a]pyrazin-7-yl)-ethoxy]-imidazo[1,2-a]pyridin-3-yl}-pyrimidin-4-yl)-[4-(1-methyl-1H-pyrazol-4-yl)-benzyl]-amine]
–	170	12	15 to 50	–	Cc1nc2n(n1)CCN(CCOc1ccn3c(-c4cc(NCc5ccc(-c6cnn(C)c6)cc5)ncn4)cnc3c1)C2 [A204, (6-{7-[2-(2-methyl-5,6-dihydro-8H-[1,2,4]triazolo[1,5-a]pyrazin-7-yl)-ethoxy]-imidazo[1,2-a]pyridin-3-yl}-pyrimidin-4-yl)-[4-(1-methyl-1H-pyrazol-4-yl)-benzyl]-amine]
–	100	11	15 to 50	–	CN1CCN(CCOc2ccn3c(-c4cc(NCc5ccc(-c6cnn(C)c6)cc5)ncn4)cnc3c2)CCC1=O [A219, 4-methyl-1-[2-(3-{6-[4-(1-methyl-1H-pyrazol-4-yl)-benzylamino]-pyrimidin-4-yl}-imidazo[1,2-a]pyridin-7-yloxy)-ethyl]-[1,4]diazepan-5-one]
–	38	8	< 15	–	Cn1cc(-c2ccc(CNc3cc(-c4cnc5cc(N6CC7(COC7)C6)ccn45)ncn3)cc2)cn1 [A246, [4-(1-methyl-1H-pyrazol-4-yl)-benzyl]-{6-[7-(2-oxa-6-aza-spiro[3.3]hept-6-yl)-imidazo[1,2-a]pyridin-3-yl]-pyrimidin-4-yl}-amine]
–	69	7.5	< 15	–	Cn1cc(-c2ccc(CNc3cc(-c4cnc5cc(OCCCO)ccn45)ncn3)cc2)cn1 [A131, 3-(3-{6-[4-(1-methyl-1H-pyrazol-4-yl)-benzylamino]-pyrimidin-4-yl}-imidazo[1,2-a]pyridin-7-yloxy)-propan-1-ol]
–	80	7	< 15	–	Cn1ncc(-c2ccc(CNc3cc(-c4cnc5cc(OCC6CCN(C7CC7)CC6)ccn45)ncn3)cc2)n1 [A186, {6-[7-(1-cyclopropyl-piperidin-4-ylmethoxy)-imidazo[1,2-a]pyridin-3-yl]-pyrimidin-4-yl}-[4-(2-methyl-2H-[1,2,3]triazol-4-yl)-benzyl]-amine]
–	92	6.1	> 50	–	Cn1cc(-c2ccc(CNc3cc(-c4cnc5cc(OCCN6CC[S+]([O-])CC6)ccn45)ncn3)cc2)cn1 [A194, [4-(1-methyl-1H-pyrazol-4-yl)-benzyl]-(6-{7-[2-(1-oxo-1|4-thiomorpholin-4-yl)-ethoxy]-imidazo[1,2-a]pyridin-3-yl}-pyrimidin-4-yl)-amine]
–	–	5.8	–	2.1e-09	Cn1cc(-c2ccc(CNc3cc(-c4cnc5cc(OCCCN6CCCC6)ccn45)ncn3)cc2)cn1 [A75 hydrochloride, [4-(1-methyl-1H-pyrazol-4-yl)-benzyl]-{6-[7-(3-pyrrolidin-1-yl-propoxy)-imidazo[1,2-a]pyridin-3-yl]-pyrimidin-4-yl}-amine hydrochloride]
–	57	2	> 50	–	Cn1ncc(-c2ccc(CNc3cc(-c4cnc5cc(OCC6CCNCC6)ccn45)ncn3)cc2)n1 [A165]
